# Results published in ChEMBL document CHEMBL2069172, “Transition state analogue inhibitors of human methylthioadenosine phosphorylase and bacterial methylthioadenosine/S-adenosylhomocysteine nucleosidase incorporating acyclic ribooxacarbenium ion mimics” (Bioorg Med Chem, 2012).
# Experiments:
# [1] = Inhibition of Neisseria meningitidis MTAN assessed as reduction in methylthioadenosine phosphorolysis/hydrolysi
# [2] = Inhibition of Escherichia coli MTAN assessed as reduction in methylthioadenosine phosphorolysis/hydrolysis
# [3] = target: T1, S-methyl-5'-thioadenosine phosphorylase (Homo sapiens, UniProt Q13126); experiment: Inhibition of human MTAP assessed as reduction in methylthioadenosine phosphorolysis/hydrolysis
# T1 sequence (Q13126 whole entry): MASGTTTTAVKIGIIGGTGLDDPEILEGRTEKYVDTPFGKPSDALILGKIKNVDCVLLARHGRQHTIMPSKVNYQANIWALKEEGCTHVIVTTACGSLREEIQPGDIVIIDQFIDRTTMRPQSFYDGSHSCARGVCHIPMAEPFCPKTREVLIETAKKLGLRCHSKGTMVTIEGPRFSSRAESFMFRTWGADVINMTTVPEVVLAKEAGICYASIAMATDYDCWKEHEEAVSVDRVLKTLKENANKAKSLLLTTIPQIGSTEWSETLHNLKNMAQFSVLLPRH
# [4] = test system: Escherichia coli; experiment: Ratio of Km to Ki for Escherichia coli MTAN assessed as reduction in methylthioadenosine phosphorolysis/hydrolysis
SMILES,Ki [1] [nM],Ki [2] [nM],Ki [3] [nM],Ratio [4]
CSC[C@H]1N[C@@H](c2c[nH]c3c(N)ncnc23)[C@H](O)[C@@H]1O,0.36,0.08,–,–
CSC[C@@H](CO)NCc1c[nH]c2c(N)ncnc12,–,–,4.4,1200
CSC[C@H](CO)NCc1c[nH]c2c(N)ncnc12,–,–,34,–
CSC[C@@H](O)[C@@H](CO)NCc1c[nH]c2c(N)ncnc12,–,–,5.2,–
CSC[C@H](O)[C@@H](CO)NCc1c[nH]c2c(N)ncnc12,–,–,87,–
CSC[C@@H](O)[C@H](CO)NCc1c[nH]c2c(N)ncnc12,–,–,34,–
CSCC(CO)(CO)NCc1c[nH]c2c(N)ncnc12,4,5.8,–,–
CSC[C@@H](O)CNCc1c[nH]c2c(N)ncnc12,36,40,602,–
CSC[C@H](CO)N[C@H](CO)c1c[nH]c2c(N)ncnc12,47,1720,–,–
CSC[C@H]1CN(Cc2c[nH]c3c(N)ncnc23)C[C@@H]1O,0.14,–,–,–
CSCC(CO)NCc1c[nH]c2c(N)ncnc12 (racemic),0.8,–,12,–
CSCC(CO)CNCc1c[nH]c2c(N)ncnc12 (racemic),1.2,0.36,10,–
CSC[C@@H](CNCc1c[nH]c2c(N)ncnc12)[C@@H](O)CO (racemic),5,9,34,–
CSC[C@@H](CN(C)Cc1c[nH]c2c(N)ncnc12)[C@@H](O)CO (racemic),61,2300,12,19
CSC[C@H](O)[C@@H](CO)CN(C)Cc1c[nH]c2c(N)ncnc12 (racemic),132,401,105,–
CSC[C@H](O)[C@@H](O)CN(C)Cc1c[nH]c2c(N)ncnc12 (racemic),85,202,368,–
